Several values for one entry are separate records, joined by “and”; a condition that tells them apart may be missing. Identical values can stand only once.
What was measured:
[1] = Ten-week MTD feeding study: weight gain and toxicity; type: in vivo
Experimental: Inbred Fischer F344 males (n=70) and females (n=70) were obtained from Taconic Farms, Germantown, N.Y. At about 35 days of age, all animals were transferred to the experimental room from quarantine. The animals were then allocated into experimental groups using formal randomization methods to ensure that each group contained animals of the same mean weight.
A ten-week pilot study was conducted as described in Table 2 & FIG. 2 to determine the maximal tolerated dose (MTD) for lycopene in both male (colon model) and female (breast model) rats. The choice of dose ranges was based on published values for β-carotene. A mixed carotenoid composition containing 5.7% carotenoids, including 3.7% pure lycopene was suspended in medium chain triglycerides (this composition will be referred to below as the “Lycopene Suspension”). The Lycopene Suspension was incorporated into the AIN-76A diet.
Differences in the lipid content of the various treatment groups were controlled by supplementing their diets with appropriate amounts of Neobee® medium chain triglyceride (Stepan Co., Maywood, N.J.) such that all animals, including controls, received the same amount of dietary fat.
Animal weights were recorded once per week and animal appearance (coat texture) and food avoidance behavior assessed. By concentration,
the maximal tolerated dose is that dose which […] mean body weight loss.

[2] = Dietary lycopene stability, AIN-76A diet at 4 °C in the dark; type: physicochemical; details: for % (diet concentration 744 μg/g as 100%) / Lycopene concentration: 4 °C dark; for Lycopene concentration: AIN-76A diet
Experimental: The stability of the lycopene suspension once incorporated into the diet was assessed in two ways. The first was by placing the diet containing the suspension at 4° C. in the dark for a period of 3 weeks (Table 8A,B).
(§1) At various time points, a diet sample was taken and lycopene was extracted as follows: Approximately 0.5 to 1.0 g of sample was added to a 15 ml volume of extraction solvent consisting of 40% acetonitrile, 20% hexane, 20% methanol and 20% methylenechloride. The mixture was sonicated for 2 minutes and allowed to stand for 5 minutes. The reddish-orange clear supernatant was then decanted. This process was repeated 4 times, at which time the supernatant was colorless. Solvent was then added to a volume of 25 to 100 ml, the mixture centrifuged, and the supernatant decanted. All supernatants were then mixed. The above solvent serves two purposes; first, it is the most efficient mixture for lycopene, and second, it is the same solvent used for injecting lycopene samples into the HPLC.

α-tocopherol = assay: Liver vitamin E assay; type: in vivo, Fischer 344 rats; details: for Liver α-tocopherol: female
Text: The effect of the tomato carotenoid supplement on the absorption and storage of two important fat soluble vitamins, namely, retinol and α-tocopherol, was investigated. Using established HPLC methods, a strong liner dose-response relationship was found between the lycopene content of the liver and both retinol and a-tocopherol concentration in female R-344 rats (Table 23).

[3] = Stability of lycopene incorporated into AIN-76A diet at ambient temperature in food cup (air and light); type: physicochemical; details: for Concentration: ambient temperature
Experimental: as §1
The second was by exposing the lycopene-containing diet to air and light, as is the case in an actual feeding study. The stability of lycopene in the food cup where it is exposed to light and air is seen in Table 9.

[4] = Carotenoid content of Lycopene Suspension-supplemented diets after 7 months storage; type: physicochemical; details: for Carotenoid content of diet: stored at −20 °C for 7 months
Experimental: When the Lycopene Suspension (Henkel Corporation, La Grange, Ill.) was extracted by organic extraction methods, the major carotenoid was lycopene, but a number of other carotenoids were known to be present in tomatoes, α- and β-Carotene, phytofluene and phytoene were also present (FIGS. 6 & 7). The quantitative profile of carotenoids in the Lycopene Suspension was carried out using an HPLC system as described above, equipped with a photodiode array detector. The six major components can be seen in Table 7.
(Table 10). Note that all the major carotenoids plus the lycopene metabolite present in the Lycopene Suspension are present in the diets in the same relative proportions. However, the net loss of lycopene over 7 months was 66%, 38%, 40%, 44% and 60%, in treatment groups 1-5, respectively; in contrast, β-carotene concentrations declined by only 10% of original values over the same time period.

[5] = Concentration of lycopene in rat lung; type: in vivo, Fischer 344 rats
Experimental: Extraction of lycopene from diet was as follows: A sample of diet containing lycopene was suspended in the injection solvent (Table 4) and homogenized in a polytron homogenizer. Echinenone was added as an internal standard and the mixture centrifuged at 3000 rpm at 4° C. for 15 minutes. The supernatant was decanted and saved and the extraction repeated. The pooled extracts were then dried under N2 gas at 60° C. and the residue dissolved in 0.5 ml injection solvent and then subjected to HPLC analysis. The same method, with minor variations, was used for feces and for lung tissue. The efficiency of lycopene extraction from the diet is shown in Table 6 A&B. At any concentration tested the efficiency ranged from 75% at the highest concentration to 100% for the lowest concentration of lycopene.
homogenized. […] This hexane extraction procedure was repeated 5-7 times.

[6] = female rat, Group 1, 1280 in diet
[7] = female rat, Group 2, 512 in diet
[8] = female rat, Group 3, 256 in diet
[9] = female rat, Group 4, 128 in diet
[10] = female rat, Group 5, 51 in diet
[11] = male rat, Group 1, 1280 in diet

CC(C)=CCC/C(C)=C/C=C/C(C)=C/C=C/C(C)=C/C=C/C=C(C)/C=C/C=C(C)/C=C/C=C(\C)CCC=C(C)C [Lycopene]
toxicity ([1]; F-344 rat, dose range used): no evidence of lycopene toxicity
difference in weight gains between doses ([1]; analysis of variance for repeated measures): no difference
weight gain difference, control vs supplemented rats ([1]; end of 10 weeks): ≤ 10%
effect on food intake or weight gain ([1]; male and female rats, dosage range used): no deleterious effect
% (diet concentration 744 μg/g as 100%) ([2]; 1 day): 101%
% (diet concentration 744 μg/g as 100%) ([2]; 8 days): 98%
% (diet concentration 744 μg/g as 100%) ([2]; 14 days): 90%
% (diet concentration 744 μg/g as 100%) ([2]; 21 days): 72%
amount remaining relative to day 1 ([2]; 4 °C in the dark, 3 weeks): about 72%
decomposition ([2]; 4 °C in the dark, two weeks): about 10%
stability in the diet ([2]; 21 days in the dark at 4 °C): stable
Lycopene concentration ([2]; 1 day in refrigerator): 748 µg/g
Lycopene concentration ([2]; 8 days in refrigerator): 728 µg/g
Lycopene concentration ([2]; 14 days in refrigerator): 672 µg/g
Lycopene concentration ([2]; 21 days in refrigerator): 534 µg/g
difference in liver α-tocopherol between controls and the highest lycopene dose (α-tocopherol; female rats): 4 fold
Liver α-tocopherol (α-tocopherol; Group 1, lycopene 1280 mg/kg diet): 47 μg/gm
Liver α-tocopherol (α-tocopherol; Group 3, lycopene 256 mg/kg diet): 39 μg/gm
Liver α-tocopherol (α-tocopherol; Group 4, lycopene 128 mg/kg diet): 46 μg/gm
Liver α-tocopherol (α-tocopherol; Group 5, lycopene 51 mg/kg diet): 32 μg/gm
stability in the diet ([3]; 7 days at ambient light and temperature): stable
Concentration ([3]; AIN-76A diet, 0 days in food cup): 744 µg/g
Concentration ([3]; 2 days in food cup): 702 µg/g
Concentration ([3]; 3 days in food cup): 616 µg/g
Concentration ([3]; 6 days in food cup): 547 µg/g
Concentration ([3]; 7 days in food cup): 439 µg/g
Concentration ([3]; 9 days in food cup): 624 µg/g
Concentration ([3]; 10 days in food cup): 576 µg/g
Concentration ([3]; 13 days in food cup): 449 µg/g
Concentration ([3]; 14 days in food cup): 419 µg/g
Concentration ([3]; 15 days in food cup): 425 µg/g
Concentration ([3]; 17 days in food cup): 431 µg/g
Concentration ([3]; 20 days in food cup): 385 µg/g
Concentration ([3]; 21 days in food cup): 376 µg/g
original lycopene no longer measurable ([3]; food cup, air and light, 3 weeks): one-half
lycopene lost ([3]; food cup, air and light, 48-hour period): a small amount is lost
total lycopene lost ([3]; food cup, air and light, 72 hours): approximately 20%
Carotenoid content of diet ([4]; Diet 1, 2.5 mM/kg diet): 472 μg/gm (ppm)
Carotenoid content of diet ([4]; Diet 2, 1.0 mM/kg diet): 348 μg/gm (ppm)
Carotenoid content of diet ([4]; Diet 3, 0.5 mM/kg diet): 168 μg/gm (ppm)
Carotenoid content of diet ([4]; Diet 4, 0.25 mM/kg diet): 92 μg/gm (ppm)
Carotenoid content of diet ([4]; Diet 5, 0.10 mM/kg diet): 22 μg/gm (ppm)
net loss over 7 months ([4]; diet of treatment group 1, 7 months storage): 66%
net loss over 7 months ([4]; diet of treatment group 2, 7 months storage): 38%
net loss over 7 months ([4]; diet of treatment group 3, 7 months storage): 40%
net loss over 7 months ([4]; diet of treatment group 4, 7 months storage): 44%
net loss over 7 months ([4]; diet of treatment group 5, 7 months storage): 60%
Concentration of lycopene in lung, average [5, 6]: 227 ngs/gm
Concentration of lycopene in lung, individual [5, 6]: 184 ngs/gm and 270 ngs/gm
Concentration of lycopene in lung, average [5, 7]: 246 ngs/gm
Concentration of lycopene in lung, individual [5, 7]: 211 ngs/gm and 280 ngs/gm
Concentration of lycopene in lung, average [5, 8]: 193 ngs/gm
Concentration of lycopene in lung, individual [5, 8]: 243 ngs/gm and 142 ngs/gm
Concentration of lycopene in lung, average [5, 9]: 211 ngs/gm
Concentration of lycopene in lung, individual [5, 9]: 208 ngs/gm and 214 ngs/gm
Concentration of lycopene in lung, average [5, 10]: 134 ngs/gm
Concentration of lycopene in lung, individual [5, 10]: 144 ngs/gm and 124 ngs/gm
Concentration of lycopene in lung, average [5, 11]: 190 ngs/g
Concentration of lycopene in lung, individual [5, 11]: 193 ngs/g and 187 ngs/g
Concentration of lycopene in lung, average ([5]; male rat, Group 2, 512 in diet): 214 ngs/g
Concentration of lycopene in lung, individual ([5]; male rat, Group 2, 512 in diet): 170 ngs/g and 257 ngs/g
Concentration of lycopene in lung, average ([5]; male rat, Group 3, 256 in diet): 375 ngs/g
Concentration of lycopene in lung, individual ([5]; male rat, Group 3, 256 in diet): 325 ngs/g and 424 ngs/g
Concentration of lycopene in lung, average ([5]; male rat, Group 4, 128 in diet): 201 ngs/g
Concentration of lycopene in lung, individual ([5]; male rat, Group 4, 128 in diet): 239 ngs/g and 162 ngs/g
Concentration of lycopene in lung, average ([5]; male rat, Group 5, 51 in diet): 151 ngs/g
Concentration of lycopene in lung, individual ([5]; male rat, Group 5, 51 in diet): 167 ngs/g and 135 ngs/g
